The target in one assay is human PDHK2 (12-407) (Homo sapiens (Human), UniProt Q15119). Description: Isothermal titration calorimetry (ITC) binding. Particulars: ITC at 30° C., pH 7.5. Here is the method: Isothermal Titration Calorimetry
ITC measurements were performed with a VP-ITC micro calorimeter (Microcal, LLC/GE Healthcare Bio-Sciences Aft Uppsala, Sweden). In general titrations were performed by titrating the protein (50 μM) to the test compound (5 μM) in 12 μl injections. All binding experiments were carried out at 30° C. In general the test compounds were diluted form DMSO stock solutions into the measurement buffer with a maximum final concentration of 1% DMSO. The measurement buffer was 20 mM HEPES, 135 mM KCl, 1 mM TCEP, 2 mM MgCl2, 15 mM NaH2PO4, pH 7.5. The human PDHK2 (12-407) was produced in E. coli as his-tagged protein and purified by affinity chromatography. The tag was removed by side specific proteolysis. Before titration the protein buffer was changed to the measurement buffer containing the same DMSO concentration as the test compound dilution. ITC data analysis was performed using Origin 7 calorimetry software from the same supplier. For most measurements a binding model of one binding site was assumed. According to the applied mathematical model it is possible to calculate the binding constant (KA), the observed binding enthalpy (ΔH^obs) as well as the stoichiometry (N) of the formed complex.
Preceding analysis the raw data was corrected for the heats of dilution by extrapolating from the saturation value from the end of titration. In order to allow for direct comparison between the respective experimental series and protein preparations the protein concentration was corrected by referencing titrations to a well behaved standard inhibitor. The apparent stoichiometry values defined the fraction of binding competent protein and compensated for relative errors in protein concentration measurements. This corrected protein concentration was used to set up ITC experiment series with test compounds. Any deviations from ideal 1:1 stoichiometry observed here were attributed to errors in compound concentration. This nominal compound concentration was corrected as well to achieve 1:1 stoichiometry in the fit.
A general note: In ITC the heat of successive injections is recorded.

Another assay has as its target PDHK2 (Homo sapiens (Human), UniProt Q15119). The experiment in a line: Biochemical activity testing of PDHK2: PDC inactivation assay. Particulars: human rec PDHK2, porcine heart PDC, 5 μM ATP, read-out: IC50 PDHK2 (enzyme assay). The source says: Biochemical Activity Testing of PDHK2: PDC Inactivation Assay
The biochemical activity assay for PDHK2 is based on the inactivation of PDC through phosphorylation by PDHK2. The assay is run in two steps: the enzymatic PDHK2 reaction in which isolated PDC is phosphorylated by PDHK2 with ATP as co-substrate and the PDC activity assay in which pyruvate and NAD are converted to acetyl-CoA and NADH. The PDC activity correlates to the increase in NADH and thereby is detectable directly via the increasing fluorescence signal (Exc 340 nm, Em 450 nm). Inhibition of PDHK2 results in a lower phosphorylation status and thereby a less decrease in activity of PDC and a stronger increase in NADH fluorescence signal.
The PDC inactivation assay is performed in Greiner 384-well microtiter plates and is used for high throughput screen. 4 μl of PDHK2 (human, rec, Carna Bioscience, 10 ng/μl-137 nM final concentration) and PDC (isolated from porcine heart, Sigma-Aldrich, 20 mU/ml final concentration) are incubated in the absence or presence of the test compound (10 dilution concentrations) for 30 min at room temperature in kinase buffer (15 mM potassium phosphate buffer, pH 7.0, 60 mM KCl, 1.5 mM DTT, 2.5 mM MgCl2, 0.0125% (w/v) BSA, 0.125% Pluronic F-68). The kinase reaction is started by the addition of 4 μl ATP substrate solution (fc 5 μM in kinase buffer). After 30 min incubation at 37° C. 40 μl of PDC reaction solution (100 mM Tris/HCl, pH 7.8, 0.5 mM EDTA, 1 mM MgCl2, 50 mM NaF, 0.25 mM Coenzyme A, 5 mM pyruvate, 1 mM NAD, 5 mM DTT, 1 mM thiamine pyrophosphate) is added. The first fluorescence measurement is performed on a Perkin Elmer Envision (Exc 340 nm, Em 450 nm). The reaction is incubated for 45 min at room temperature. Afterwards a second fluorescence measurement is performed and the PDC activity is calculated by the difference between both measurements. As full value for the PDHK2 assay the inhibitor-free PDHK2 reaction is used. The pharmacological zero value used is DCA (Sigma-Aldrich) in a final concentration of 3 mM. The inhibitory values […] were determined using either the program Symyx Assay Explorer® or Condosseo® from GeneData.

Assay [1] deals with PDH-E1alpha (pSer300) in HEK293T cells. The experiment in a line: Cellular immunofluorescence assay, PDH-E1alpha (pSer300) in HEK293T cells. Format: cell-based, human. Conditions: Homo sapiens, HEK-293T, 5 hours incubation, anti-PDH-E1alpha (pSer300) immunofluorescence, read-out: IC50 (cell data). Here is the method:
Cellular Assay for Determination of Compound Activities
Compound activities were determined in a cellular immunofluorescence assay. Human HEK293T cells were seeded into black 384-well plates with clear bottom and grown overnight.
Next day, test compounds were added to the wells and the plates incubated for 5 hours. Following this, cells were fixed with formaldehyde, permeabilised and blocked. The primary antibody, Anti-PDH-E1alpha (pSer300), AP1064 (Merck Millipore) was added and incubated overnight in the plate wells. Next, cells were washed and the secondary antibody, Alexa Fluor 488, goat anti-rabbit ab (A-11008, Invitrogen) was added together with Hoechst 33258 (H3569, Invitrogen) and incubated for 1 hour in the plate wells. Finally, cells were washed and the plates were measured on the laser scanning cytometer acumen hci (TTpLabtech).
The raw data were normalized against a pharmacological inhibitor control and dose response curves were generated by plotting the percent effect values using the software package Genedata screener (Genedata).

Bounds are passed on as bounds.

The term Kd denotes a measure of binding affinity in units of concentration. The IC50 is the midpoint of a concentration-inhibition curve. Regarding `C[C@@](O)(C(=O)N1CCc2c(cnn2-c2ccc(Cl)cc2)C1)C(F)(F)F` [Compound A1, (2R)-1-[1-(4-chlorophenyl)-6,7-dihydro-4H-pyrazolo[4,3-c]pyridin-5-yl]-3,3,3-trifluoro-2-hydroxy-2-methyl-propan-1-one], the Kd on human PDHK2 (12-407) was under 300 nM. The IC50 at PDHK2 is under 300 nM; in assay [1], 3000 to 50000 nM.
For the compound `C[C@@](O)(C(=O)N1CCc2c(cnn2-c2ccccc2)C1)C(F)(F)F` [Compound A3, (R)-3,3,3-Trifluoro-2-hydroxy-2-methyl-1-(1-phenyl-1,4,6,7-tetrahydro-pyrazolo[4,3-c]pyridin-5-yl)-propan-1-one], at human PDHK2 (12-407), the dissociation constant (Kd) was under 300 nM. In addition, the IC50 was under 300 nM at PDHK2 and 300 to 3000 nM in assay [1].
In turn, `C[C@@](O)(C(=O)N1CCc2c(cnn2-c2ccc(F)cc2)C1)C(F)(F)F` [Compound A4, (R)-3,3,3-Trifluoro-1-[1-(4-fluoro-phenyl)-1,4,6,7-tetrahydro-pyrazolo[4,3-c]pyridin-5-yl]-2-hydroxy-2-methyl-propan-1-one] showed a Kd on human PDHK2 (12-407) of under 300 nM. In addition, the IC50 was under 300 nM on PDHK2 and 300 to 3000 nM in assay [1].
`C[C@@](O)(C(=O)N1CCc2c(cnn2-c2ccc(F)cc2F)C1)C(F)(F)F` [Compound A5, (R)-1-[1-(2,4-Difluoro-phenyl)-1,4,6,7-tetrahydro-pyrazolo[4,3-c]pyridin-5-yl]-3,3,3-trifluoro-2-hydroxy-2-methyl-propan-1-one] showed a Kd on human PDHK2 (12-407) of under 300 nM. The IC50 on PDHK2 is under 300 nM; in assay [1] it was 300 to 3000 nM.
For `C[C@@](O)(C(=O)N1CCc2nn(-c3ccc(F)cc3F)cc2C1)C(F)(F)F` [Compound A6, (R)-1-[2-(2,4-Difluoro-phenyl)-2,4,6,7-tetrahydro-pyrazolo[4,3-c]pyridin-5-yl]-3,3,3-trifluoro-2-hydroxy-2-methyl-propan-1-one], at human PDHK2 (12-407), the Kd is under 300 nM. Besides, the IC50 fell in the range of 300 to 3000 nM on PDHK2 and 3000 to 50000 nM in assay [1].
On the same counts, the results for `CC(C)(C)n1ncc2c1CCN(C(=O)[C@@](C)(O)C(F)(F)F)C2` [Compound A7, (R)-1-(1-tert-Butyl-1,4,6,7-tetrahydro-pyrazolo[4,3-c]pyridin-5-yl)-3,3,3-trifluoro-2-hydroxy-2-methyl-propan-1-one] are under 300 nM, under 300 nM and 300 to 3000 nM.
As for `CC(C)(C)n1cc2c(n1)CCN(C(=O)[C@@](C)(O)C(F)(F)F)C2` [Compound A8, (R)-1-(2-tert-Butyl-2,4,6,7-tetrahydro-pyrazolo[4,3-c]pyridin-5-yl)-3,3,3-trifluoro-2-hydroxy-2-methyl-propan-1-one], on human PDHK2 (12-407), the Kd was 300 to 3000 nM. For the same compound, the IC50 was in the range of 300 to 3000 nM at PDHK2 and 3000 to 50000 nM in assay [1].
Consider `C[C@H]1CN(C(=O)[C@@](C)(O)C(F)(F)F)Cc2cnn(-c3ccccc3)c21` [Compound A19, (R)-3,3,3-Trifluoro-2-hydroxy-2-methyl-1-((S)-7-methyl-1-phenyl-1,4,6,7-tetrahydro-pyrazolo[4,3-c]pyridin-5-yl)-propan-1-one], for which the IC50 (at PDHK2; in assay [1]) was 300 to 3000 nM in each case.
With `C[C@@](O)(C(=O)N1CCc2c(ncn2-c2ccc(F)cc2)C1)C(F)(F)F` [Compound A44, (R)-3,3,3-Trifluoro-1-[1-(4-fluoro-phenyl)-1,4,6,7-tetrahydro-imidazo[4,5-c]pyridin-5-yl]-2-hydroxy-2-methyl-propan-1-one], the results for the IC50 (on PDHK2; in assay [1]) were 300 to 3000 nM and 3000 to 50000 nM, respectively.
For the compound `C[C@@](O)(C(=O)N1CCc2c(ncn2-c2ccc(Cl)cc2)C1)C(F)(F)F` [Compound A45, (R)-1-[1-(4-Chloro-phenyl)-1,4,6,7-tetrahydro-imidazo[4,5-c]pyridin-5-yl]-3,3,3-trifluoro-2-hydroxy-2-methyl-propan-1-one], the IC50 at PDHK2 was in the range of 300 to 3000 nM; in assay [1] it was 3000 to 50000 nM.

Source of the values: patent publication US10526325B2, “Bicyclic heterocyclic derivatives” (Merck Patent GmbH, priority 2015, dated 2020).
